Where two headings read alike, the source gives them in different places.
Legend:
non-expressing oocytes = assay: cells; format: cell-based, Xenopus laevis; settings: Xenopus laevis, total [3H]CQ transport; for inhibition at 500 µM: [test solute] = 0.5 mM; for inhibition at 1000 µM: [test solute] = 1 mM; for inhibition at 2000 µM: [test solute] = 2 mM
Outline: (§1)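 Assay buffer ND96 (10 mM MES, 10 mM Tris-base) held at pH 5.5 to mimic vacuole lumen; uptake measured inward from this acidic medium over 1.5 h at 27.5 °C.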

PfCRT^3D7 = PfCRT^3D7 (Plasmodium falciparum, UniProt Q8IBZ9); assay: cell-based; format: cell-based; settings: total [3H]CQ transport; for inhibition at 500 µM: [test solute] = 0.5 mM; for inhibition at 1000 µM: [test solute] = 1 mM; for inhibition at 2000 µM: [test solute] = 2 mM
Outline: as §1

PfCRT^Dd2 = PfCRT^Dd2 (Plasmodium falciparum, UniProt Q9N623, A220S/I356T/K76T/M74I/N326S/N75E/Q271E/R371I); assay: [3H]CQ uptake into Xenopus oocytes, cis-inhibition by unlabelled solute; format: cell-based
Outline: as §1

PfCRT^Ecu1110 = PfCRT^Ecu1110 (Plasmodium falciparum, UniProt Q9N623, A220S/I356L/K76T/N326D); assay: as above; format: cell-based
Outline: as §1

[1] = Oocyte, mean ± SEM, SEM, read-out: Uptake of [3H]CQ (% PfCRTDd2 control), cis-inhibition, non-expressing oocytes
[2] = non-expressing oocytes, normalised to the oocyte type control, read-out: Uptake of [3H]CQ (% non-expressing oocyte control), cis-inhibition
[3] = PfCRT3D7 oocytes, normalised to the oocyte type control, read-out: Uptake of [3H]CQ (% PfCRT3D7 control), cis-inhibition
[4] = mean ± SEM, SEM, read-out: Uptake of [3H]CQ (% PfCRTDd2 control), cis-inhibition, PfCRT3D7
[5] = read-out: PfCRT-mediated [3H]CQ transport, cis-inhibition (% PfCRTDd2 control)
[6] = read-out: Uptake of [3H]CQ (% PfCRTDd2 control), cis-inhibition, PfCRTDd2, SEM
[7] = read-out: PfCRT-mediated [3H]CQ transport, cis-inhibition (% PfCRTEcu1110 control)
[8] = read-out: Uptake of [3H]CQ (% PfCRTDd2 control), cis-inhibition, PfCRTEcu1110, SEM
[9] = read-out: Uptake of [3H]CQ (% PfCRTEcu1110 control), cis-inhibition
[10] = read-out: [3H]CQ transport (% PfCRTEcu1110 control), cis-inhibition, PfCRTEcu1110, SEM

PfCRT^3D7, sequence (Q8IBZ9 59-398): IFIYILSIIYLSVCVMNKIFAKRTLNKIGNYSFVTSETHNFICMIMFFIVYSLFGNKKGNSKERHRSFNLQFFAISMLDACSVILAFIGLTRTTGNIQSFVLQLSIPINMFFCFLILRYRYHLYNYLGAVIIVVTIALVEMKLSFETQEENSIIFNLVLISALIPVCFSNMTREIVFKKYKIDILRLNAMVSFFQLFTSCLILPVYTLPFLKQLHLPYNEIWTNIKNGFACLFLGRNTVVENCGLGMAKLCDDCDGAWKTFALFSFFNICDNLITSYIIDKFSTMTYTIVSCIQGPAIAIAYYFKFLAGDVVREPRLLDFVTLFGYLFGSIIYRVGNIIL
PfCRT^Dd2, sequence (Q9N623 whole entry A220S/I356T/K76T/M74I/N326S/N75E/Q271E/R371I): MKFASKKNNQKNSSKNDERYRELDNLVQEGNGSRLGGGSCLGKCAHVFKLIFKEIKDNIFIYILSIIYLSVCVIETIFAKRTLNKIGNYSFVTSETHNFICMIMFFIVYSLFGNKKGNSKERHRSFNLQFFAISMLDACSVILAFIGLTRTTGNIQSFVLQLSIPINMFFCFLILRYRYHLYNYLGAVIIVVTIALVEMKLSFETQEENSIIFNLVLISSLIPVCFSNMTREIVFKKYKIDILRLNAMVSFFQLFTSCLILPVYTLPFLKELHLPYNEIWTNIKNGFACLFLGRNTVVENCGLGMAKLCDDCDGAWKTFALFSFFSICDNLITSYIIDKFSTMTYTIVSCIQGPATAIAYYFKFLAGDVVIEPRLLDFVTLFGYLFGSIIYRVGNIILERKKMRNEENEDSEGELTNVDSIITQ
PfCRT^Ecu1110, sequence (Q9N623 whole entry A220S/I356L/K76T/N326D): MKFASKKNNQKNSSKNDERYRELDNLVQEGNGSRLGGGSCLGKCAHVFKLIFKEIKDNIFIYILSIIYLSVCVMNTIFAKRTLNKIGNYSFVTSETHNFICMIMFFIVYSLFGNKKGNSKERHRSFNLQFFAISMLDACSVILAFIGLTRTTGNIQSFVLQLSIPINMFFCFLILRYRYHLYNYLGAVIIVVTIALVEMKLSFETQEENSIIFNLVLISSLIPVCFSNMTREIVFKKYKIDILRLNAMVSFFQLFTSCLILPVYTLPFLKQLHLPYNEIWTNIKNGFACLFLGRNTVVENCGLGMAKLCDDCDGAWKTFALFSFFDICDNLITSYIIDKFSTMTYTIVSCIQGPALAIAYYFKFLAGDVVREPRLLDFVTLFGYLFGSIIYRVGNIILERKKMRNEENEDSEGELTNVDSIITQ

`CC[C@H](C)[C@H](N)C(=O)O` [L-isoleucine] was tested, and the inhibition at 500 µM (non-expressing oocytes; [1]) was 2.7 ± 0.08%, the inhibition at 1000 µM (non-expressing oocytes; [1]) was 3.3 ± 0.03% and the inhibition at 2000 µM (non-expressing oocytes; [1]) was 2.4 ± 0.07%. It also gave an inhibition at 500 µM (non-expressing oocytes; [2]) of 94 ± 7.5%, an inhibition at 1000 µM (non-expressing oocytes; [2]) of 100 ± 4.5% and an inhibition at 2000 µM (non-expressing oocytes; [2]) of 101 ± 3.2%. The inhibition at 500 µM (PfCRT^3D7; [3]) was 99 ± 4.7%, the inhibition at 1000 µM (PfCRT^3D7; [3]) was 98 ± 5.7% and the inhibition at 2000 µM (PfCRT^3D7; [3]) was 102 ± 4.7%. It also gave an inhibition at 500 µM (PfCRT^3D7; [4]) of 3.1 ± 0.07%, an inhibition at 1000 µM (PfCRT^3D7; [4]) of 2.8 ± 0.04% and an inhibition at 2000 µM (PfCRT^3D7; [4]) of 2.8 ± 0.02%. For the same compound, the inhibition at 500 µM (PfCRT^Dd2; [5]) was 95 ± 5.1%, the inhibition at 2000 µM (PfCRT^Dd2; [5]) was 96 ± 3.7% and the inhibition at 500 µM (PfCRT^Dd2; [6]) was 97 ± 4.9%. The inhibition at 1000 µM (PfCRT^Dd2; [6]) was 100 ± 6.5%, the inhibition at 2000 µM (PfCRT^Dd2; [6]) was 98 ± 6.2% and the inhibition at 500 µM (PfCRT^Ecu1110; [7]) was 93 ± 5.9%. The inhibition at 1000 µM (PfCRT^Ecu1110; [7]) was 98 ± 4.1%, the inhibition at 2000 µM (PfCRT^Ecu1110; [7]) was 98 ± 5.2% and the inhibition at 500 µM (PfCRT^Ecu1110; [8]) was 31 ± 1.7%. It also gave an inhibition at 1000 µM (PfCRT^Ecu1110; [8]) of 33 ± 1.8%, an inhibition at 2000 µM (PfCRT^Ecu1110; [8]) of 33 ± 1.5% and an inhibition at 500 µM (PfCRT^Ecu1110; [9]) of 96 ± 6.9%. For the same compound, the inhibition at 1000 µM (PfCRT^Ecu1110; [9]) was 100 ± 6.9%, the inhibition at 2000 µM (PfCRT^Ecu1110; [9]) was 101 ± 9.5% and the inhibition at 500 µM (PfCRT^Ecu1110; [10]) was 28 ± 0.3%. The inhibition at 1000 µM (PfCRT^Ecu1110; [10]) was 30 ± 0.6%.

From article PMC7413254 (Nature Communications, 2020)
